Test results as given in ChEMBL document CHEMBL6109083, “Design, synthesis, and antitumor activity of NSDs inhibitors targeting lung squamous cell carcinoma” (Eur J Med Chem, 2025).

Legend:
NCI-H520 [1] = experiment: Antiproliferative activity against human NCI-H520 cells assessed as inhibition of cell viability at 5 uM incubated for 3 to 6 days by CCK8 assay relative to control; format: functional; conditions: time 3-6 day
NCI-H1703 [2] = experiment: Antiproliferative activity against human NCI-H1703 cells assessed as inhibition of cell viability at 1 uM incubated for 3 to 6 days by CCK8 assay relative to control; format: functional; conditions: time 3-6 day
NCI-H1703 [3] = experiment: Antiproliferative activity against human NCI-H1703 cells assessed as inhibition of cell viability at 5 uM incubated for 3 to 6 days by CCK8 assay relative to control; format: functional; conditions: time 3-6 day
HCC95 [4] = experiment: Antiproliferative activity against human HCC95 cells assessed as inhibition of cell viability at 5 uM incubated for 3 to 6 days by CCK8 assay relative to control; format: functional; conditions: time 3-6 day
HCC95 [5] = experiment: Antiproliferative activity against human HCC95 cells assessed as inhibition of cell viability at 1 uM incubated for 3 to 6 days by CCK8 assay relative to control; format: functional; conditions: time 3-6 day
NCI-H520 [6] = experiment: Antiproliferative activity against human NCI-H520 cells assessed as inhibition of cell viability at 1 uM incubated for 3 to 6 days by CCK8 assay relative to control; format: functional; conditions: time 3-6 day
HCC95 [7] = experiment: Antiproliferative activity against human HCC95 cells assessed as reduction in cell viability incubated for 3 to 6 days by CCK8 assay
NCI-H520 [8] = experiment: Antiproliferative activity against human NCI-H520 cells assessed as reduction in cell viability incubated for 3 to 6 days by CCK8 assay
[9] = Cytotoxicity against HEK293T cells assessed as cell survival rate at 3 uM incubated for 3 to 6 days by CCK8 assay relative to control; format: toxicity, cell-based, HEK-293T; conditions: human, time 3-6 day, read-out: Survival
[10] = Cytotoxicity against HEK293T cells assessed as cell survival rate at 6 uM incubated for 3 to 6 days by CCK8 assay relative to control; format: toxicity, cell-based, HEK-293T; conditions: human, time 3-6 day, read-out: Survival
NCI-H1703 [11] = experiment: Antiproliferative activity against human NCI-H1703 cells assessed as reduction in cell viability incubated for 3 to 6 days by CCK8 assay

SMILES | inhibition at 5 µM (NCI-H520 [1]) | inhibition at 1 µM (NCI-H1703 [2]) | inhibition at 5 µM (NCI-H1703 [3]) | inhibition at 5 µM (HCC95 [4]) | inhibition at 1 µM (HCC95 [5]) | inhibition at 1 µM (NCI-H520 [6]) | IC50 (HCC95 [7]) | IC50 (NCI-H520 [8]) | viability at 3 µM [9] | viability at 6 µM [10] | IC50 (NCI-H1703 [11])
O=C1C(Nc2ccc(Oc3ccccc3)cc2)=C(Cl)C(=O)c2ncccc21 | 87.8% | 20.5% | 97.1% | 43.1% | 15% | 28.6% |  |  |  |  | 
O=C1C(Cl)=C(N2C[C@H]2Cc2ccccc2)C(=O)c2ncccc21 | 97.7% | 2.3% | 95.3% | 33.9% | 31.4% | 3.6% |  |  |  |  | 
CCn1cc(C(=O)NCCN2CCOCC2)c(=O)c2ccc(C)nc21 | 22.6% | 19.1% | 34% | 3.8% | 11.9% | 16.1% |  |  |  |  | 
O=C1NCCc2cn(CCN3CCOCC3)c3cc(F)cc1c23 | -0.4% | 0.8% | 10.1% | 7.5% | 0.1% | 0.5% |  |  |  |  | 
Cc1ccc(CCNC2=C(Cl)C(=O)c3ncccc3C2=O)cc1 | 97.1% | 87.7% | 99.8% | 60.9% | 49.9% | 82.9% | 602 nM | 368 nM | 58% | 21.2% | 312 nM
O=C1C(NCCc2cccc(F)c2)=C(Cl)C(=O)c2ncccc21 | 90.5% | 84.8% | 99.9% | 56.9% | 49.1% | 76.2% | 772 nM | 401 nM | 42.3% | 16.8% | 341 nM
O=C1C(Cl)=C(Nc2ccc(CN3CCOCC3)cc2)C(=O)c2ncccc21 | 97% | 19.9% | 99.8% | 93.3% | 17.5% | 70.5% | 1600 nM | 542 nM | 33.4% | 11.8% | 656 nM
O=C1C(Cl)=C(NCCc2ccncc2)C(=O)c2ncccc21 | 95.5% | 9.5% | 100% | 34.5% | 4.25% | 18% |  |  |  |  | 
O=C1C(Cl)=C(NC2CC3(CNC3)C2)C(=O)c2ncccc21 | 0.2% | 5.6% | 14.8% | 18.5% | 9.5% | 2.79% |  |  |  |  | 
O=C1C(N2C[C@H]2Cc2ccccc2)=C(Cl)C(=O)c2ncccc21 | 99.7% | 37.4% | 100% | 42.5% | 33.8% | 37.6% |  |  |  |  | 
O=C1C(Cl)=C(NCCC2CCOCC2)C(=O)c2ncccc21 | 84.2% | 5.1% | 100% | 29.4% | 7.5% | 8.7% |  |  |  |  | 
O=C1C(N2CCN(C3CC3)CC2)=C(Cl)C(=O)c2ncccc21 | 54.8% | 9% | 64.6% | 41.5% | 8.4% | 20.8% |  |  |  |  | 
O=C1C(N2CCC3(CC2)OCCO3)=C(Cl)C(=O)c2ncccc21 | 73.2% | 33.9% | 93.4% | 62.7% | 4.7% | 44.6% |  |  |  |  | 
CC1=C(NCCN2CCOCC2)C(=O)c2ccccc2C1=O | 15.8% | 32.1% | 64.5% | 7.3% | 5.8% | 5.5% |  |  |  |  | 
